Source: patent US11919887B2, “Substituted tetrahydrofurans as modulators of sodium channels” (Vertex Pharmaceuticals Incorporated, priority 2019, dated 2024)

Each molecule was assayed against human Nav 1.8 (Homo sapiens, UniProt Q9Y5Y9) (assay: E-VIPR assay detecting and measuring Nav inhibition (HEK cells expressing truncated human Nav 1.8)). Conditions: in the Absence of Human Serum in the E-VIPR Assay; read-out: IC50.
Type: cell-based
Text: Sodium ion channels are voltage-dependent proteins that can be activated by inducing membrane voltage changes by applying electric fields. The electrical stimulation instrument and methods of use, referred to as E-VIPR, are described in International Publication No. WO 2002/008748 A3 and C.-J. Huang et al. Characterization of voltage-gated sodium channel blockers by electrical stimulation and fluorescence detection of membrane potential, 24 Nature Biotech. 439-46 (2006), both of which are incorporated by reference in their entirety. The instrument comprises a microtiter plate handler, an optical system for exciting the coumarin dye while simultaneously recording the coumarin and oxonol emissions, a waveform generator, a current- or voltage-controlled amplifier, and parallel electrode pairs that are inserted into assay plate wells. Under integrated computer control, this instrument passes user-programmed electrical stimulus protocols to cells within the wells of the microtiter plate.
16-20 hours prior to running the assay on E-VIPR, HEK cells expressing a truncated form of human Nav 1.8 with full channel activity were seeded into microtiter 384-well plates, pre-coated with matrigel, at a density of 25,000 cells per well. 2.5-5% KIR2.1 Bacmam virus was added to the final cell suspension before seeding into cell plates. HEK cells were grown in Dulbecco's Modified Eagle's Medium (DMEM) supplemented with 10% FBS (Fetal Bovine Serum, qualified; Sigma #F4135), 1% NEAA (Non-Essential Amino Acids, Gibco #11140), 1% HEPES (Gibco #15630), 1% Pen-Strep (Penicillin-Streptomycin; Gibco #15140) and 5 μg/ml Blasticidin (Gibco #R210-01). Cells were expanded in vented cap cell culture flasks, with 90-95% humidity and 5% CO2.
Human Serum (HS, Millipore #S1P1-01KL, or Sigma SLBR5469V and SLBR5470V as a 50%/50% mixture, for 25% assay final concentration)
Bath1 Buffer: • Sodium Chloride 160 mM (9.35 g/L), Potassium Chloride, 4.5 mM (0.335 g/L), Glucose 10 mM (1.8 g/L), Magnesium Chloride (Anhydrous) 1 mM (0.095 g/L), Calcium Chloride 2 mM (0.222 g/L), HEPES 10 mM (2.38 g/L) in water.
Na/TMA Cl Bath1 Buffer: • Sodium Chloride 96 mM (5.61 g/L), Potassium Chloride 4.5 mM (0.335 g/L), Tetramethylammonium (TMA)-Cl 64 mM (7.01 g/L), Glucose 10 mM (1.8 g/L), Magnesium Chloride (Anhydrous) 1 mM (0.095 g/L), Calcium Chloride 2 mM (0.222 g/L) HEPES 10 mM (2.38 g/L) in water.
Hexyl Dye Solution (2× concentration): • Bath1 Buffer containing 0.5% β-cyclodextrin (made fresh prior to each use, Sigma #C4767), 8 μM CC2-DMPE and 2 μM DiSBAC6(3). The solution was made by adding 10% Pluronic F127 stock equal to combined volumes of CC2-DMPE and DiSBAC6(3). The order of preparation was first mix Pluronic and CC2-DMPE, then add DiSBAC6(3), then while vortexing add Bath1/β-Cyclodextrin.
Compound Loading Buffer (2×concentration): Na/TMA Cl Bath1 Buffer containing HS (omitted in experiments run in the absence of human serum (HS)) 50%, VABSC-1 1 mM, BSA 0.2 mg/ml (in Bath-1), KCl 9 mM, DMSO 0.75%.
Assay Protocol (7 Key Steps): • 1) To reach the final concentration in each well, 400 nL of each compound was pre-spotted (in neat DMSO) into polypropylene compound plates at 250×desired final concentration from an intermediate stock concentration of 0.075 mM, in an 11 point dose response, 3-fold dilution, resulting in a top dose of 300 nM final concentration in the cell plate. Vehicle control (neat DMSO), and positive control (an established Nav1.8 inhibitor, 25 μM final in assay in DMSO) were added manually to the outermost columns of each plate respectively. The compound plate was backfilled with 45 μL per well of Compound Loading Buffer resulting in a 250 fold dilution of compound following a 1:1 transfer of compound into the cell plate (see Step 6). Final DMSO concentration for all wells in the assay was 0.625% (0.75% DMSO was supplemented to the Compound Loading Buffer for a final DMSO concentration of 0.625%). […]

Sequence of human Nav 1.8 (Q9Y5Y9 whole entry, looked up, the tested form may be a part): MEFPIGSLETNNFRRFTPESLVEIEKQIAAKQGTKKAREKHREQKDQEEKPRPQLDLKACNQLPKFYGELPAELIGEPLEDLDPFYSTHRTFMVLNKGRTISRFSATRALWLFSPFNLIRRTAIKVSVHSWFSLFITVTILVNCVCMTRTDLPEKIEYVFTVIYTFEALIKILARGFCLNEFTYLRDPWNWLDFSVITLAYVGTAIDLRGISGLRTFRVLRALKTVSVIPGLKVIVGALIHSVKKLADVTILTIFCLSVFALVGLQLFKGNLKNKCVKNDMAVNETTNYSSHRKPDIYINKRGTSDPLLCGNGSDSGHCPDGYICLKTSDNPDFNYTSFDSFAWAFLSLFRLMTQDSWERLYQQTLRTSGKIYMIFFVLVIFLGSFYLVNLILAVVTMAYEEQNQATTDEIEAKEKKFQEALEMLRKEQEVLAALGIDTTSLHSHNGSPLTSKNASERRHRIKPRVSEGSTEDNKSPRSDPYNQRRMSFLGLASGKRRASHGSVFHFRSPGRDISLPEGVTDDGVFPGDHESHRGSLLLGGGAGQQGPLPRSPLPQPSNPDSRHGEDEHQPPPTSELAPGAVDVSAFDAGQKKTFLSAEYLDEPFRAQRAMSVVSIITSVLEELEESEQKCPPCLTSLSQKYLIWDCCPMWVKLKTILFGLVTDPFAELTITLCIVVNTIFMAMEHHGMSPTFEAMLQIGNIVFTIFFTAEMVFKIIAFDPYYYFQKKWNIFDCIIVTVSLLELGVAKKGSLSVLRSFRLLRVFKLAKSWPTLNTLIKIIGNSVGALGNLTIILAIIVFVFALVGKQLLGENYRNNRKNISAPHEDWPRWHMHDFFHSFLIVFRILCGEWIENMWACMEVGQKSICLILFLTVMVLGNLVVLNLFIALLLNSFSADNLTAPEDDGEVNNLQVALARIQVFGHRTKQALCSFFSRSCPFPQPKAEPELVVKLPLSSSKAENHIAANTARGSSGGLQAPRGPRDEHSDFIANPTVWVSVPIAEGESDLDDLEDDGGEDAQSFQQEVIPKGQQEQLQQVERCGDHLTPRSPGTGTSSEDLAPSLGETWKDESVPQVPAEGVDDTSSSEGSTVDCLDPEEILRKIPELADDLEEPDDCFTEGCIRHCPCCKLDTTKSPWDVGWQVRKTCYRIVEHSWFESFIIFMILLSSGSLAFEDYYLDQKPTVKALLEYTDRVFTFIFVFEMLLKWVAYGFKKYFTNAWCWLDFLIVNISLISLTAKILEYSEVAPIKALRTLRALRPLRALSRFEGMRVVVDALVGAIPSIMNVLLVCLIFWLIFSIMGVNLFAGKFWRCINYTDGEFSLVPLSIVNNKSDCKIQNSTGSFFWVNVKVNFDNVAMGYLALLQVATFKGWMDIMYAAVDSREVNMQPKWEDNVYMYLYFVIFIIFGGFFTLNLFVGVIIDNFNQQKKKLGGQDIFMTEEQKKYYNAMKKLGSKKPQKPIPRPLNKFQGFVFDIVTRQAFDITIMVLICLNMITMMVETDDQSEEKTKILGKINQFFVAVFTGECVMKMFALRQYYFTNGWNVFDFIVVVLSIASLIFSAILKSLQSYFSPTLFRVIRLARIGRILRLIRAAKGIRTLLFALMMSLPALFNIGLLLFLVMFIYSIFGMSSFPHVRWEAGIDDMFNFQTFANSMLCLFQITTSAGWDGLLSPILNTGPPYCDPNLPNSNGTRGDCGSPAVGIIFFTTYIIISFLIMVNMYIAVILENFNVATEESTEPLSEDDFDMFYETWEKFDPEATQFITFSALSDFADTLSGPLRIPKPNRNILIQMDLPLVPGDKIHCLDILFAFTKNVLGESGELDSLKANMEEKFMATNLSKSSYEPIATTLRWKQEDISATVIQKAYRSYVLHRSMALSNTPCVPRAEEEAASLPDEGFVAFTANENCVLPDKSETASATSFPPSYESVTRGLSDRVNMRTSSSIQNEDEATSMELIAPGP

Row | SMILES | IC50 [nM]
1 | COc1c([C@H]2[C@H](C(=O)Nc3cc(C(N)=O)ncc3C)O[C@@](C)(C(F)(F)F)[C@H]2C)ccc(F)c1F [Compound 119, 4-[[(2R,3S,4S,5R)-3-(3,4-difluoro-2-methoxy-phenyl)-4,5-dimethyl-5-(trifluoromethyl)tetrahydrofuran-2-carbonyl]amino]-5-methyl-pyridine-2-carboxamide] | < 10
2 | Cc1c([C@@H]2[C@@H](C)[C@@](C)(C(F)(F)F)O[C@H]2C(=O)Nc2ccnc(C(N)=O)c2)ccc(F)c1F (stereo in doubt) [Compound 133, rel-(2R,3S,4R,5S)-4-[[3-(3,4-difluoro-2-methyl-phenyl)-4,5-dimethyl-5-(trifluoromethyl)tetrahydrofuran-2-carbonyl]amino]pyridine-2-carboxamide] | 10 to 100
3 | Cc1c([C@@H]2[C@@H](C(=O)Nc3ccnc(C(N)=O)c3)O[C@](C)(C(F)(F)F)[C@@H]2C)ccc(F)c1F (stereo in doubt) [Compound 131, rel-(2S,3R,4R,5S)-4-[[3-(3,4-difluoro-2-methyl-phenyl)-4,5-dimethyl-5-(trifluoromethyl)tetrahydrofuran-2-carbonyl]amino]pyridine-2-carboxamide] | > 1000
4 | COc1c([C@H]2[C@H](C(=O)Nc3cc(C(N)=O)ccn3)O[C@@](C)(C(F)(F)F)[C@H]2C)ccc(F)c1F [Compound 120, 2-[[(2R,3S,4S,5R)-3-(3,4-difluoro-2-methoxy-phenyl)-4,5-dimethyl-5-(trifluoromethyl)tetrahydrofuran-2-carbonyl]amino]pyridine-4-carboxamide] | 10 to 100
5 | C[C@H]1[C@@H](c2ccc(F)c(F)c2OC2CCC2)[C@H](C(=O)Nc2ccnc(C(N)=O)c2)O[C@@]1(C)C(F)(F)F [Compound 147, 4-[[(2R,3S,4S,5R)-3-[2-(cyclobutoxy)-3,4-difluoro-phenyl]-4,5-dimethyl-5-(trifluoromethyl)tetrahydrofuran-2-carbonyl]amino]pyridine-2-carboxamide] | < 10
6 | COc1c([C@H]2[C@H](C(=O)Nc3ccnc(C(N)=O)c3)O[C@@](C)(C(F)(F)F)[C@H]2C)cc(Cl)c(F)c1F [Compound 152, 4-[[(2R,3S,4S,5R)-3-(5-chloro-3,4-difluoro-2-methoxy-phenyl)-4,5-dimethyl-5-(trifluoromethyl)tetrahydrofuran-2-carbonyl]amino]pyridine-2-carboxamide] | < 10

Same assay, conditions: in the Presence of Human Serum in the E-VIPR Assay

Row | SMILES | IC50 [nM]
7 | COc1c([C@@H]2[C@@H](C(=O)Nc3ccnc(C(N)=O)c3)O[C@@](C)(C(F)(F)F)[C@H]2C)ccc(F)c1F (racemic) [Compound 34, rac-(2S,3R,4S,5R)-4-[[3-(3,4-difluoro-2-methoxy-phenyl)-4,5-dimethyl-5-(trifluoromethyl)tetrahydrofuran-2-carbonyl]amino]pyridine-2-carboxamide] | > 1000
8 | COc1c([C@@H]2[C@@H](C(=O)Nc3ccnc(C(N)=O)c3)O[C@@](C)(C(F)(F)F)[C@@H]2C)ccc(F)c1F (racemic) [Compound 33, rac-(2S,3R,4R,5R)-4-[[3-(3,4-difluoro-2-methoxy-phenyl)-4,5-dimethyl-5-(trifluoromethyl)tetrahydrofuran-2-carbonyl]amino]pyridine-2-carboxamide] | 100 to 1000
9 | [2H]C([2H])([2H])Oc1c([C@H]2[C@H](C(=O)Nc3ccnc(C(N)=O)c3)O[C@@](C)(C(F)(F)F)[C@H]2C)ccc(F)c1F [compound 26] | < 10

Same assay, conditions: in the Presence of Human Serum in the E-VIPR Assay; read-out: IC50

Row | SMILES | IC50 [nM]
10 | CNC(=O)c1cc(NC(=O)[C@H]2O[C@](C)(C(F)(F)F)[C@H](C)[C@@H]2c2ccc(F)cc2OC(F)F)ccn1 (single isomer, unassigned) [Compound 29] | > 1000
11 | COc1c([C@H]2C[C@@](C)(C(F)(F)F)O[C@@H]2C(=O)Nc2ccc(F)c(C(N)=O)c2)ccc(F)c1F (single isomer, unassigned) [Compound 46] | > 1000
12 | CCc1c(F)ccc([C@H]2C[C@@](C)(C(F)(F)F)O[C@@H]2C(=O)Nc2ccnc(C(N)=O)c2)c1OC (single isomer, unassigned) [Compound 77] | > 1000
13 | COc1c([C@@H]2[C@@H](C)C(C)(C)O[C@H]2C(=O)Nc2ccnc(C(N)=O)c2)ccc(F)c1F (single isomer, unassigned) [Compound 102] | > 1000
14 | Cc1c(F)ccc([C@H]2[C@H](C(=O)Nc3ccnc(C(N)=O)c3)O[C@@](C)(C(F)(F)F)[C@H]2C)c1OC(F)F (stereo in doubt) [Compound 17, rel-(2R,3S,4S,5R)-4-[[3-[2-(difluoromethoxy)-4-fluoro-3-methyl-phenyl]-4,5-dimethyl-5-(trifluoromethyl)tetrahydrofuran-2-carbonyl]amino]pyridine-2-carboxamide] | < 10
15 | COc1c([C@@H]2C[C@](C)(C(F)(F)F)O[C@H]2C(=O)Nc2ccnc(C(N)=O)c2)ccc(F)c1C (single isomer, unassigned) [Compound 72] | 10 to 100
16 | CCc1c(F)ccc([C@@H]2C[C@](C)(C(F)(F)F)O[C@H]2C(=O)Nc2ccnc(C(N)=O)c2)c1OC (single isomer, unassigned) [Compound 78] | 10 to 100
17 | COc1c([C@@H]2[C@@H](C(=O)Nc3ccnc(C(N)=O)c3)O[C@](C)(C(F)F)[C@@H]2C)ccc(F)c1F (stereo in doubt) [Compound 98, rel-(2S,3R,4R,5S)-4-[[3-(3,4-difluoro-2-methoxy-phenyl)-5-(difluoromethyl)-4,5-dimethyl-tetrahydrofuran-2-carbonyl]amino]pyridine-2-carboxamide] | > 1000
18 | COc1c([C@H]2C[C@@](C)(C(F)(F)F)O[C@@H]2C(=O)Nc2ccnc(C(N)=O)c2)ccc(F)c1C (single isomer, unassigned) [Compound 71] | > 1000
19 | C[C@H]1[C@@H](c2ccc(F)cc2OC(F)F)[C@H](C(=O)Nc2ccc(F)c(C(N)=O)c2)O[C@@]1(C)C(F)(F)F (single isomer, unassigned) [Compound 32] | < 10
20 | COc1cc(F)ccc1[C@@H]1C[C@](C)(C(F)(F)F)O[C@H]1C(=O)Nc1ccnc(C(N)=O)c1 (stereo in doubt) [Compound 68, rel-(2R,3S,5R)-4-[[3-(4-fluoro-2-methoxy-phenyl)-5-methyl-5-(trifluoromethyl)tetrahydrofuran-2-carbonyl]amino]pyridine-2-carboxamide] | 10 to 100
21 | C[C@H]1[C@@H](c2ccc(F)cc2OC(F)F)[C@H](C(=O)Nc2ccnc(C(N)=O)c2)O[C@@]1(C)C(F)(F)F (stereo in doubt) [Compound 2, rel-(2R,3S,4S,5R)-4-[[3-[2-(difluoromethoxy)-4-fluoro-phenyl]-4,5-dimethyl-5-(trifluoromethyl)tetrahydrofuran-2-carbonyl]amino]pyridine-2-carboxamide] | 100 to 1000
22 | COc1nc(C(F)(F)F)ccc1[C@H]1[C@H](C(=O)Nc2ccnc(C(N)=O)c2)O[C@@](C)(C(F)(F)F)[C@H]1C (stereo in doubt) [Compound 138, rel-(2R,3S,4S,5R)-4-[[3-[2-methoxy-6-(trifluoromethyl)-3-pyridyl]-4,5-dimethyl-5-(trifluoromethyl)tetrahydrofuran-2-carbonyl]amino]pyridine-2-carboxamide] | 10 to 100
23 | C[C@@H]1[C@H](c2ccc(F)cc2OC(F)F)[C@@H](C(=O)Nc2ccc(F)c(C(N)=O)c2)O[C@]1(C)C(F)(F)F (single isomer, unassigned) [Compound 31] | > 1000
